Laboratory results as given in patent US20110281285A1, “Assay for Detecting Cathepsin K Activty in Bone, Cartilage and/or Soft Tissue” (priority 2009, published 2011).
Non-standard residues stand in square brackets, D forms with d. No end group written: not given here. Hyp = O=C(O)[C@@H]1C[C@@H](O)CN1

Key:
antiserum R771 = test: Competitive inhibition ELISA for neoepitope specificity of the antiserum; format: binding, rabbit; details: for competition by / binding of the antibody to competing synthetic peptide: competitive inhibition ELISA, FIG. 1A and B
Method: A direct enzyme-linked immunosorbent assay (ELISA) assay was used to determine the antibody titer. The antiserum with the highest titer was selected for use. Investigation of the neoepitope specificity of the antiserum was performed by competitive inhibition ELISA as described.^17 The percentage binding and percentage inhibition were calculated for each of the standard peptides and results were expressed on a molar basis.
(§1) Immulon™ 2 plates (VWR International, Montreal, Canada) were coated with the peptide-ovalbumin conjugate (prepared as described above for the hemocyanin conjugate) diluted in phosphate-buffered saline (PBS), pH 7.2, at 3 ng/well (50 μl/well), the optimum concentration as determined by checkerboard analyses. After overnight incubation at 4° C., the plate was washed three times with PBS-0.1% Tween™ 20 and blocked with 100 μl of PBS-1% bovine serum albumin (BSA), at room temperature for 30 minutes. Serial dilutions of the standard peptide containing the epitope that had been used for immunization were prepared and added at 50 μl/well in triplicate to round bottom polypropylene plates used as preincubation plates; the antiserum was diluted 1:12,000 (optimum dilution as determined by checkerboard analyses) in PBS-1% BSA, 0.1% Tween 20, pH 7.2, and added to the plates (50 μl/well). In the nonspecific binding wells 50 μl of PBS-1% BSA and 50 μl of PBS-1% BSA, 0.1% Tween 20 were added; the maximum binding wells contained 50 μl of the diluted antiserum and 50 μl of PBS-1% BSA. After 1 hour incubation at 37° C., 50 μl of each preincubated well was transferred to the Immulon 2 flat-bottom, 96-well microtiter plates. The plates were incubated at 4° C. for 30 minutes and then washed three times with PBS-0.1% Tween 20. Alkaline phosphatase-conjugated goat antirabbit IgG (Sigma, St. Louis, Mo.), diluted 1:1000 in PBS-1% BSA, 0.1% Tween 20 was then added to each well (50 μl/well). The plate was incubated for 1 hour at 37° C., washed three times with PBS-0.1% Tween 20, and once with distilled water. One 5 mg tablet of alkaline phosphatase substrate (Sigma) was dissolved in 10 ml of 8.9 mmol/L diethanolamine buffer, pH 9.8, and added to the plate (50 μl/well). The optical density (405 nm) was read after 1 hour incubation. The detection limit of the newly developed assay was 2.8 ng/ml and the coefficients of variation (% CV) of the intra-assays and inter-assays were <10%. The analytic recovery was 87.2 to 97.3% and the recovery rates for the serial dilution were 92 to 108%.

α-chymotrypsin = target: T1, α-chymotrypsin (Bos taurus, UniProt P00766); test: Treatment of immunizing peptide with α-chymotrypsin; details: 50 ng/ml immunizing peptide solution
T1 construct: purchased Sigma
Method: The content of C2K and C2C neoepitopes in cartilage were determined by extraction with α-chymotrypsin (Sigma). This degrades denatured but not intact triple helical collagen, to solubilize the collagen neoepitopes that can then be assayed. Femoral condylar cartilages from 17 normal and 19 OA individuals were washed and digested with α-chymotrypsin, as previously described.^23 The digest was removed and stored at −20° C. until analyzed. To ensure that the cathepsin K-generated neoepitope is not cleaved by α-chymotrypsin, a separate digestion was first performed by treating a 50 ng/ml immunizing peptide solution with α-chymotrypsin as described above. […] The concentration of the neoepitope released from the cartilage in the α-chymotrypsin digests was expressed as pmol of neoepitope/mg wet wt of cartilage (based on the molecular weights of the two neoepitope sequences used as standards in the ELISA assays: 717.8 Da for the C2K neoepitope and 972 Da for C2C).

[1] = target: T2, Recombinant human cathepsin K (Homo sapiens, UniProt P43235); test: Digestion of human Col II with cathepsin K, C2K neoepitope by inhibition ELISA; format: biochemical; details: pH 7.0, 2 μmol/L cathepsin K, peak at 48 hours, versus absence of chondroitin sulfate (FIG. 4)
T2 construct: processed to the mature form and purified as described previously; made in house; host or cells: Pichia pastoris
T2 sequence (P43235 115-329): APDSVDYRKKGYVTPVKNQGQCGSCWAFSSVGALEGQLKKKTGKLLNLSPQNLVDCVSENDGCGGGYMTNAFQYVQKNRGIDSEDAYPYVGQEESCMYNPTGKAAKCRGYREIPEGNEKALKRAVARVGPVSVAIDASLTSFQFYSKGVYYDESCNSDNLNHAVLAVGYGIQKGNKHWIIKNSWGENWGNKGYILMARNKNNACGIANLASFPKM
Method: as §1, with “Alkaline phosphatase-conjugated goat antirabbit IgG (Sigma, St. Louis, Mo.), diluted 1:1000 in PBS-1% BSA, 0.1% Tween 20 was then added to each well (50 μl/well). The plate was incubated for 1 hour at 37° C., washed three times with PBS-0.1% Tween 20, and once with distilled water. One 5 mg tablet of alkaline phosphatase substrate (Sigma) was dissolved in 10 ml of 8.9 mmol/L diethanolamine buffer, pH 9.8, and added to the plate (50 μl/well).” left out, “The detection limit of the newly developed assay was 2.8 ng/ml and the coefficients of variation (% CV) of the intra-assays and inter-assays were <10%. The analytic recovery was 87.2 to 97.3% and the recovery rates for the serial dilution were 92 to 108%.” left out

[2] = target: antiserum R771 (rabbit polyclonal anti-C2K neoepitope antiserum); test: competitive inhibition ELISA: free peptide against plate-bound peptide-ovalbumin conjugate, antiserum R771 at 1:12,000

## (ii): one-residue extension of the immunizing peptide at the C terminus (CGEAGKPGK; listed as Homo sapiens)
Antiserum R771
  competition by / binding of the antibody to competing synthetic peptide: negligible

## (vi): immunizing peptide with glutamic acid and alanine residues inverted (CGAEGKPG; listed as Homo sapiens)
Antiserum R771
  competition by / binding of the antibody to competing synthetic peptide: negligible binding

## (v): immunizing peptide with deletion of the alanine residue (CGEGKPG; listed as Homo sapiens)
Antiserum R771
  competition by / binding of the antibody to competing synthetic peptide: negligible binding

## CGEAGKPG [immunizing peptide, N-terminal cysteine added]
α-chymotrypsin
  loss of epitope after α-chymotrypsin treatment: No loss of epitope
Antiserum R771; peptide alone as competitive antigen, antiserum R771 diluted 1:12,000, read-out: median inhibitory concentration (IC50) in ELISA inhibition assay
  IC50: 45 nM

## chondroitin 4-sulfate [C4S]
[1]
  amount of C2K neoepitope on addition to the digestion buffer: significantly increased

## (i): one-residue truncation of the immunizing peptide at the C terminus (CGEAGKP; listed as Homo sapiens)
Antiserum R771
  competition by / binding of the antibody to competing synthetic peptide: negligible

## peptide iii: sequence similar to the immunizing peptide, except for the proline residue that was 4-hydroxylated (CGEAGK[Hyp]G)
Antiserum R771
  competition by / binding of the antibody to competing synthetic peptide: reduced affinity

## peptide (iv): N-terminally truncated peptide, deletion of the G (CEAGKPG; listed as Homo sapiens)
Antiserum R771
  competition by / binding of the antibody to competing synthetic peptide: some affinity

## chondroitin 6-sulfate [C6S]
[1]
  amount of C2K neoepitope on addition to the digestion buffer: significantly increased

## CGEAGKPG
[2]
  IC50: 45 nM
